Target: Dopamine receptor (Homo sapiens) (UniProt P14416+P35462+P21918+P21917+P21728)
Settings: Felis catus
Description: Inhibition of stimulation-induced tachycardia via the presynaptic dopamine receptors

Structure (SMILES) | ID50
CCCN(CCC)[C@@H]1Cc2cccc(O)c2C1 | 7 nM
CCCN(CCC)[C@H]1Cc2cccc(O)c2C1 | 720 nM
